Results: PubChem BioAssay AID328 (DTP/NCI, 2004)
“And” between values parts separate entries of the source, which are not always exact repeats. Equal entries are not always repeated. Inconclusive results and toxic doses are left out. The calls were made as follows: active = survival T/C of 150% or more; inactive = T/C below 125% in these data.

Test system: BDF1 mice, P388 leukemia ip, median survival T/C
Assay: NCI In Vivo Anticancer Drug Screen. Data for tumor model P388 Leukemia (intraperitoneal) in B6D2F1 (BDF1) mice
Conditions: endpoint: median survival time, higher = longer survival
Procedure, shortened: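 Each value expresses how treatment altered survival: treated-mouse outcome over vehicle-mouse outcome, both groups bearing the transplanted tumour.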

[1] = dose: 100.0 mg/kg/injection, schedule: Q04DX003 (ip), vehicle: saline with Tween-80
[2] = dose: 200.0 mg/kg/injection, schedule: Q04DX003 (ip), vehicle: saline with Tween-80
[3] = dose: 400.0 mg/kg/injection, schedule: Q04DX003 (ip), vehicle: saline with Tween-80
[4] = dose: 50.0 mg/kg/injection, schedule: Q01DX009 (ip), vehicle: saline
[5] = dose: 100.0 mg/kg/injection, schedule: Q01DX009 (ip), vehicle: saline
[6] = dose: 200.0 mg/kg/injection, schedule: Q01DX009 (ip), vehicle: saline
[7] = dose: 6.25 mg/kg/injection, schedule: Q01DX009 (ip), vehicle: saline with Tween-80
[8] = dose: 12.5 mg/kg/injection, schedule: Q01DX009 (ip), vehicle: saline with Tween-80
[9] = dose: 100.0 mg/kg/injection, schedule: Q04DX003 (ip), vehicle: saline
[10] = dose: 200.0 mg/kg/injection, schedule: Q04DX003 (ip), vehicle: saline
[11] = dose: 400.0 mg/kg/injection, schedule: Q04DX003 (ip), vehicle: saline
[12] = dose: 400.0 mg/kg/injection, schedule: Q01DX009 (ip), vehicle: saline

Measured: T/C

CCCCC(O)C1=CC(=O)C2CC(C)=C(C)CC2C1=O (stereo unspecified)
inactive: [1] 92 % of control | [2] 102 % of control | [3] 100 % of control

CC1=CC2=C(C=O)C(=O)[C@](C)(O)[C@@H](O)C2=CO1
inactive: dose: 44.0 mg/kg/injection, schedule: Q04DX003 (ip), vehicle: Klucel (hydroxypropylcellulose) (HPC) 101 % of control | dose: 44.0 mg/kg/injection, schedule: Q04DX003 (ip), vehicle: saline with Tween-80 108 % of control and 114 % of control | dose: 66.0 mg/kg/injection, schedule: Q04DX003 (ip), vehicle: Klucel (hydroxypropylcellulose) (HPC) 115 % of control | dose: 66.0 mg/kg/injection, schedule: Q04DX003 (ip), vehicle: saline with Tween-80 116 % of control | dose: 100.0 mg/kg/injection, schedule: Q04DX003 (ip), vehicle: Klucel (hydroxypropylcellulose) (HPC) 108 % of control | dose: 150.0 mg/kg/injection, schedule: Q04DX003 (ip), vehicle: saline with Tween-80 108 % of control | [2] 95 % of control

CC1CC[N-]CC1.CC1CC[N-]CC1.CC1CC[N-]CC1.CC1CC[N-]CC1.O=C([O-])C(=O)[O-].O=C([O-])C(=O)[O-].[Nb+5].[O-][O-].[O-][O-].[Pt+4]
inactive: dose: 0.39 mg/kg/injection, schedule: Q01DX009 (ip), vehicle: saline 106 % of control | dose: 0.78 mg/kg/injection, schedule: Q01DX009 (ip), vehicle: saline 102 % of control | dose: 1.56 mg/kg/injection, schedule: Q01DX009 (ip), vehicle: saline 115 % of control | dose: 3.12 mg/kg/injection, schedule: Q01DX009 (ip), vehicle: saline 102 % of control

CCCCCCNC1=CC(=O)CC(C)(C)C1
inactive: [4] 105 % of control | [5] 99 % of control | [6] 107 % of control

O=C1c2cscc2C(=O)c2c(Cl)sc(Cl)c21
inactive: [7] 101 % of control | [8] 108 % of control | dose: 25.0 mg/kg/injection, schedule: Q01DX009 (ip), vehicle: saline with Tween-80 101 % of control

O=C1CCC(=O)C12CCNCC2
inactive: [9] 100 % of control | [10] 100 % of control | [11] 109 % of control

O=C(Nc1cc(C(F)(F)F)cc(C(F)(F)F)c1)Nc1c(Oc2ccc(Cl)cc2Cl)ccc(Cl)c1S(=O)(=O)O
inactive: dose: 50.0 mg/kg/injection, schedule: Q04DX003 (ip), vehicle: saline sonified 87 % of control | dose: 100.0 mg/kg/injection, schedule: Q04DX003 (ip), vehicle: saline sonified 87 % of control

CC(C)(S(=O)(=O)Oc1ccccc1)S(=O)(=O)Oc1ccccc1
inactive: [1] 93 % of control | [2] 87 % of control | [3] 92 % of control

C[N+](C)(C)CCC[N+](C)(C)C
active: dose: 300.0 mg/kg/injection, schedule: Q01DX006 (ip), vehicle: saline 151 % of control
inactive: [9] 100 % of control | dose: 200.0 mg/kg/injection, schedule: Q01DX006 (ip), vehicle: saline 114 % of control | [10] 104 % of control | dose: 400.0 mg/kg/injection, schedule: Q01DX006 (ip), vehicle: saline 94 % of control | [11] 93 % of control

CSc1nc(N)nc2c1ncn2C1CC(O)C(CO)O1 (stereo unspecified)
inactive: [4] 95 % of control | [5] 95 % of control and 101 % of control | [6] 100 % of control | [12] 97 % of control

Clc1ccc(C2(Cn3ccnc3)OCC(COc3ccc(-c4ccccc4)cc3)O2)c(Cl)c1 (stereo unspecified)
inactive: dose: 50.0 mg/kg/injection, schedule: Q01DX009 (ip), vehicle: saline with Tween-80 108 % of control | dose: 100.0 mg/kg/injection, schedule: Q01DX009 (ip), vehicle: saline with Tween-80 101 % of control | dose: 200.0 mg/kg/injection, schedule: Q01DX009 (ip), vehicle: saline with Tween-80 99 % of control

CCCCCOc1cc(C(=O)NN)nc(C(=O)NN)c1
inactive: dose: 1.56 mg/kg/injection, schedule: Q01DX009 (ip), vehicle: saline with Tween-80 103 % of control | dose: 3.13 mg/kg/injection, schedule: Q01DX009 (ip), vehicle: saline with Tween-80 111 % of control | [7] 111 % of control | [8] 116 % of control

COc1ccc(CN(CCO)C(C)=O)cc1
inactive: [5] 102 % of control | [9] 100 % of control | [6] 109 % of control | [10] 100 % of control | [12] 115 % of control | [11] 95 % of control
